In patent US20240122865A1, “Methods of Protecting RNA” (Pfizer Inc., priority 2021, published 2024):

Tested on: FgenL model RNA
Assay: TapeStation Assay, FgenL model RNA
Format: biochemical, Trichoderma atroviride
Set-up: Conc. FgenL#1 / Conc. FgenL#2: unit not given here
Conditions: FgenL RNA, 20 mM amino acids, 50 mM CAPS pH 11, 50° C. 15 min, vs Time 0
Method: These assays were performed with amino acids and compared to a no-degradation baseline control to gauge degree of protection imparted by the amino acid. Multiple functional assay approaches were used where differing endpoints were measured including a droplet digital PCR (ddPCR) assay where intact RNA sequence was quantitated, a size exclusion base hydrolysis degradation assay that used a size exclusion column to determine the degree of degradation occurring to an mRNA construct, and finally, a TapeStation assay that utilizes capillary electrophoresis and optical detection to measure intact RNA. […] Affinity selection by mass spectrometry (ASMS), native electrospray ionization mass spectrometry (nESI-MS) and nuclear magnetic resonance (NMR) may be used as several complementary approaches to ascertain compound binding to RNA. The latter techniques utilize MS to measure mass of bound compound alone (ASMS), or mass of RNA and bound compound (nESI-MS). The nESI-MS and NMR studies may be conducted to provide direct analytical quantification of resulting complex via measurement of mass (nESI-MS) or chemical shifts (NMR). The ASMS experiment is conducted to determine saturation binding of the compound to RNA where resulting apparent binding constants (KD,App) may be generated. Further descriptions of the functional and binding assays are provided in the section below.
In principle, samples are loaded to the instrument where electrophoresis separates component RNA's on the basis of mass, and subsequently analyzes these optically as they travel through the capillary.
RNA samples were diluted to the appropriate concentration to fall within the linear range of detection for the RNA ScreenTape Assay. Model Chi18 or FgenL RNAs were diluted to 50 ng/μL in 50 mM CAPS buffer pH 11. Amino acid stocks were made up in 50 mM CAPS pH 11 and re-adjusted to >pH 11 after solubilization. […] The samples were aliquoted to PCR tubes for each time point (Time 0 or 15 minutes). Degradation reaction: Samples were incubated at 50° C. for 0 to 15 minutes in a thermocycler, removed at the appropriate time point and placed on ice. Time 0 samples remained on ice.

| SMILES | % Control N = 1 | % Control N = 2 |
| --- | --- | --- |
| NC(=O)C[C@H](N)C(=O)O [Asparagine] | 21.9% | 15.0% |
| N[C@@H](CC(=O)O)C(=O)O [Aspartic acid] | 107.0% | 91.1% |

Same assay, conditions: FgenL RNA, 20 mM amino acids, 50 mM CAPS pH 11, 50° C. 15 min, vs Time 0, Avg N=2

| SMILES | % Control Average |
| --- | --- |
| NC(=O)C[C@H](N)C(=O)O [Asparagine] | 18.4% |
| N[C@@H](CC(=O)O)C(=O)O [Aspartic acid] | 99.0% |

Same assay, conditions: intact FgenL RNA after 15 min at 50° C., 20 mM amino acids in 50 mM CAPS pH 11, run #1

| SMILES | Conc. FgenL#1 |
| --- | --- |
| NC(=O)C[C@H](N)C(=O)O [Asparagine] | 7.56 |
| N[C@@H](CC(=O)O)C(=O)O [Aspartic acid] | 36.9 |

Same assay, conditions: intact FgenL RNA after 15 min at 50° C., 20 mM amino acids in 50 mM CAPS pH 11, run #2

| SMILES | Conc. FgenL#2 |
| --- | --- |
| NC(=O)C[C@H](N)C(=O)O [Asparagine] | 5.19 |
| N[C@@H](CC(=O)O)C(=O)O [Aspartic acid] | 31.6 |

Tested on: FgenL mRNA construct
Assay: Size Exclusion Base Hydrolysis Degradation Assay, FgenL
Format: biochemical, Trichoderma atroviride
Conditions: FgenL 0.1 mg/mL, 25 mM amino acid, 50 mM CAPS, T=0, replicate 1
Method: (§1) Basic assay procedure: RNA samples were diluted to 1.0 mg/mL in DNAase/RNAase free water. Amino acids were dissolved in water to a stock solution of 100 mM and a solution of 500 mM CAPS pH 11 was used. The two mRNA constructs tested were FgenL and Chi18. Each individual sample volume was 50 μL. To determine the amount of 1 M NaOH needed to adjust the final pH to 11.0 after the addition of all sample components, the sample volume was increased 100 fold (5 mL), the volume of 1 M NaOH recorded and this value was translated back down to the 50 μL sample volume.
(§2) The mRNA and amino acid were allowed to incubate for one hour prior to the addition of CAPS pH 11. All steps of the assay were conducted at room temperature.
(§3) Degradation reaction: After the CAPS addition, the samples were injected onto the Waters H-Class UPLC system to record the first timepoint, T=O. This resulting chromatogram was processed by integrating the area of absorbance at 250 nm for the mRNA construct. Immediately following this timepoint, the pH was adjusted to 11. Subsequent time points (2 hrs, 10 hrs, and 24 hrs) recorded the Absorbance Units (peak area) at 250 nm as a percentage of the peak area determined at T=O. Integration of the chromatogram for subsequent timepoints was conducted by analyzing the area of absorbance at 250 nm contained within the same time window in which the peak eluted in T=0 for the 100% intact mRNA.

| SMILES | T0 R1 peak area at 250 nm |
| --- | --- |
| NC(=O)C[C@H](N)C(=O)O [Asparagine] | 14320 |
| N[C@@H](CC(=O)O)C(=O)O [Aspartic acid] | 17497 |

Same assay, conditions: FgenL, 25 mM amino acid, 50 mM CAPS pH 11, room temperature, 2 hrs

| SMILES | T2 Avg, peak area as percentage of T=0 |
| --- | --- |
| NC(=O)C[C@H](N)C(=O)O [Asparagine] | 35.9% |
| N[C@@H](CC(=O)O)C(=O)O [Aspartic acid] | 0.0% |

Same assay, conditions: FgenL, 25 mM amino acid, 50 mM CAPS pH 11, room temperature, 2 hrs, replicate 1

| SMILES | T2 R1 peak area at 250 nm |
| --- | --- |
| NC(=O)C[C@H](N)C(=O)O [Asparagine] | 6791 |
| N[C@@H](CC(=O)O)C(=O)O [Aspartic acid] | 0 |

Same assay, conditions: FgenL, 25 mM amino acid, 50 mM CAPS pH 11, room temperature, 10 hrs

| SMILES | T10 Avg, peak area as percentage of T=0 |
| --- | --- |
| NC(=O)C[C@H](N)C(=O)O [Asparagine] | 0.0% |
| N[C@@H](CC(=O)O)C(=O)O [Aspartic acid] | 0.0% |

Same assay, conditions: FgenL, 25 mM amino acid, 50 mM CAPS pH 11, room temperature, 10 hrs, replicate 1

| SMILES | T10 R1 peak area at 250 nm |
| --- | --- |
| NC(=O)C[C@H](N)C(=O)O [Asparagine] | 0 |
| N[C@@H](CC(=O)O)C(=O)O [Aspartic acid] | 0 |

Same assay, conditions: FgenL, 25 mM amino acid, 50 mM CAPS pH 11, room temperature, 24 hrs

| SMILES | T24 Avg, peak area as percentage of T=0 |
| --- | --- |
| NC(=O)C[C@H](N)C(=O)O [Asparagine] | 0.0% |
| N[C@@H](CC(=O)O)C(=O)O [Aspartic acid] | 0.0% |

Same assay, conditions: FgenL, 25 mM amino acid, 50 mM CAPS pH 11, room temperature, 24 hrs, replicate 1

| SMILES | T24 R1 peak area at 250 nm |
| --- | --- |
| NC(=O)C[C@H](N)C(=O)O [Asparagine] | 0 |
| N[C@@H](CC(=O)O)C(=O)O [Aspartic acid] | 0 |

Same assay, conditions: FgenL, 25 mM amino acid, T=0 (reference)

| SMILES | T0 Avg, peak area as percentage of T=0 |
| --- | --- |
| NC(=O)C[C@H](N)C(=O)O [Asparagine] | 100.0% |
| N[C@@H](CC(=O)O)C(=O)O [Aspartic acid] | 100.0% |

Tested on: Chi18 mRNA construct
Assay: Size Exclusion Base Hydrolysis Degradation Assay, Chi18
Format: biochemical, Trichoderma atroviride
Conditions: Chi18 0.1 mg/mL, 25 mM amino acid, 50 mM CAPS, T=0, replicate 1
Method: as §1, §2, §3

| SMILES | T0 R1 peak area at 250 nm |
| --- | --- |
| NC(=O)C[C@H](N)C(=O)O [Asparagine] | 25494 |
| N[C@@H](CC(=O)O)C(=O)O [Aspartic acid] | 11079 |

Same assay, conditions: Chi18, 25 mM amino acid, 50 mM CAPS pH 11, room temperature, 2 hrs

| SMILES | T2 Avg, peak area as percentage of T=0 |
| --- | --- |
| NC(=O)C[C@H](N)C(=O)O [Asparagine] | 62.7% |
| N[C@@H](CC(=O)O)C(=O)O [Aspartic acid] | 69.4% |

Same assay, conditions: Chi18, 25 mM amino acid, 50 mM CAPS pH 11, room temperature, 2 hrs, replicate 1

| SMILES | T2 R1 peak area at 250 nm |
| --- | --- |
| NC(=O)C[C@H](N)C(=O)O [Asparagine] | 12115 |
| N[C@@H](CC(=O)O)C(=O)O [Aspartic acid] | 7643 |

Same assay, conditions: Chi18, 25 mM amino acid, 50 mM CAPS pH 11, room temperature, 10 hrs

| SMILES | T10 Avg, peak area as percentage of T=0 |
| --- | --- |
| NC(=O)C[C@H](N)C(=O)O [Asparagine] | 0.0% |
| N[C@@H](CC(=O)O)C(=O)O [Aspartic acid] | 0.0% |

Same assay, conditions: Chi18, 25 mM amino acid, 50 mM CAPS pH 11, room temperature, 10 hrs, replicate 1

| SMILES | T10 R1 peak area at 250 nm |
| --- | --- |
| NC(=O)C[C@H](N)C(=O)O [Asparagine] | 0 |
| N[C@@H](CC(=O)O)C(=O)O [Aspartic acid] | 0 |

Same assay, conditions: Chi18, 25 mM amino acid, 50 mM CAPS pH 11, room temperature, 24 hrs

| SMILES | T24 Avg, peak area as percentage of T=0 |
| --- | --- |
| NC(=O)C[C@H](N)C(=O)O [Asparagine] | 0.0% |
| N[C@@H](CC(=O)O)C(=O)O [Aspartic acid] | 0.0% |

Same assay, conditions: Chi18, 25 mM amino acid, 50 mM CAPS pH 11, room temperature, 24 hrs, replicate 1

| SMILES | T24 R1 peak area at 250 nm |
| --- | --- |
| NC(=O)C[C@H](N)C(=O)O [Asparagine] | 0 |
| N[C@@H](CC(=O)O)C(=O)O [Aspartic acid] | 0 |

Same assay, conditions: Chi18, 25 mM amino acid, T=0 (reference)

| SMILES | T0 Avg, peak area as percentage of T=0 |
| --- | --- |
| NC(=O)C[C@H](N)C(=O)O [Asparagine] | 100.0% |
| N[C@@H](CC(=O)O)C(=O)O [Aspartic acid] | 100.0% |

Biological target: Chi18 model RNA
Assay: Droplet Digital Polymerase Chain Reaction (ddPCR) Assay, Chi18
Format: biochemical, Trichoderma atroviride
Conditions: percent protection, pH 11.0, 30° C., 16 hours, n = 2
Method: The ddPCR assays measure RNA integrity by converting intact RNA to cDNA by reverse transcription, then performing digital PCR in thousands of nanoliter-sized droplets for each sample. PCR is performed within each droplet, which allows for more sensitive detection of subtle changes in RNA concentration compared to traditional PCR or qPCR. Additionally, primers/probes specific to the 5′ end of the RNA/cDNA transcript(s) are used to assess fragment integrity—e.g. degraded RNA will have fewer 5′ positive droplets. The BioRad QX200 Droplet Digital PCR System was used for the ddPCR workflow.
Basic assay procedure: RNA samples (Chi18 or FgenL fragments) were diluted to 25 fg/μL or 10 fg/μL, respectively, in 50 mM […] buffer pH 11.0. Amino acid stocks were made up in 50 mM CAPS buffer, pH 11.0 and subsequently re-adjusted to pH 11.0, post solubilization. Amino acid stocks were tested in a dose-response format to determine EC50. An amino acid dilution plate containing a ˜300 mM (or appropriate) top-concentration of amino acid in 50 mM CAPS buffer was serially (half-log) diluted for 10 times. 0.6 μL of this compound dilution plate was spotted into a 96-well PCR plate (Thermo). Sample RNAs were added (6 μL) and incubated with test amino acid as described below.
Degradation reaction: Treated RNAs were incubated for 16 hours at 30° C. for Chi18 samples or 44° C. for FgenL samples. Upon completion of the degradation reaction, cDNA was made from the intact RNA by Reverse Transcription and ddPCR run for each sample (96 well plates). Positive 5′ droplet values were divided by the total accepted droplet values for each sample and a ratio value generated for each sample.
EC50 was determined by using a four parameter logistic equation: Y=A+((B−A)/(1+(C/X)D)); where Y is percent protection, X is compound concentration, A and B are minimum and maximum asymptotes, respectively, C is EC50, and D is Hill slope.

| EC50 | SMILES |
| --- | --- |
| 4.9 mM | NC(=O)C[C@H](N)C(=O)O [Asparagine] |
| 6.1 mM | N[C@@H](CC(=O)O)C(=O)O [Aspartic acid] |
